# Test results from US5438130A, “Fucosylated guanosine disulfates as excitatory amino acid antagonists” (priority 1993, dated 1995).
# Where two headings read alike, the source gives them in different places.
# Tests used:
# kainate receptor [1] = assay: Displacement of [3H]-kainate, rat forebrain crude synaptic membranes; conditions: 50 mM Tris-acetate; 1 hour at 4° C.; FIG. 3; read-out: IC50, displacement of [3H]-kainate binding
# Experimental: The ability of HF7 to block the kainate receptor was tested using a [^3 H]-kainate binding assay. More specifically, a standard receptor binding assay [London, E. D. et al. Molecular Pharmacol. 15:492 (1979)] was performed to determine the extent to which HF7 could displace the binding of radioactive kainate ([^3 H]-kainate, 1.0 mCi/ml, NEN). The membrane source was frozen rat forebrain crude synaptic membranes treated with detergent (0.01% TRITON-X100). Radioligand binding was determined using 50 mM Tris-acetate buffer. Samples were incubated for 1 hour at 4° C. and then filtered over either Whatman GF/B or Schleicher & Schuell glass filters. Non-specific binding was determined using 10^-4 M glutamate. [^3 H]-kainate binding was linear from 50-400 μg protein/tube.
# kainate receptors = assay: Voltage clamp of kainate-elicited currents in fish retinal horizontal cells; format: cell-based
# Text: In this experiment, kainate currents were obtained from primary cultures of fish retinal horizontal cells using standard whole cell voltage clamp techniques [Hamill, O. P. et al. Pflugers Archives 391:85 (1981)]. For recordings cells were maintained in a physiological saline containing (in mM) NaCl, 145; KCl, 2.5; CaCl2, 2.5; MgSO4, 1.0; glucose, 10; HEPES, 10, pH 7.5). Cells were held near resting potential (Vh =-60 mV). Kainate current was elicited by superfusion of a solution of physiological saline solution containing 25μM kainate.
# (§1) Two sets of experiments were conducted to determine the concentration dependence of both kainate and quisqualate currents to HF7. Each experiment was conducted in a manner similar to that in which the FIG. 4 experiment was conducted. Inward currents were elicited by bath perfusion of either 25μM kainate or by 10μM quisqualate. Six doses of HF7 were utilized for each set of experiments. Each dose was tried on three different cells. Responses to HF7 were calculated as a percent of control kainate current. […] Each point in FIG. 5 is the mean of measurement from three different cells.
# [2] = system: quisqualate currents in fish horizontal cells; assay: Voltage clamp of quisqualate-elicited currents in fish retinal horizontal cells; format: cell-based; conditions: quisqualate 10μM
# Experimental: as §1
# [3] = system: L-type calcium currents in N1E-115 murine neuroblastoma cells; assay: L-type calcium currents in N1E-115 neuroblastoma cells, whole cell voltage clamp; format: cell-based
# Experimental: (§2) L-type calcium currents were obtained from cultured N1E-115 murine neuroblastoma cells using standard whole cell voltage clamp techniques [Hamill, O. P. et al. Pflugers Archives 391:85 (1981)]. For recording inward currents, external calcium was substituted with barium. Cells were maintained in a external recording solution containing TEA.Cl, 130 mM; BaCl2, 5 mM; glucose, 10 mM; HEPES, 10 mM; tetrodotoxin, 1μM; pH 7.4). The pipette solution contained CsCl, 115 mM; EGTA, 10 mM; HEPES, 10 mM; Mg.ATP, 4 mM.
# The results from one experiment can be seen in FIG. 6. A depolarizing test pulse to +10 mV elicited an inward current of ~240 pA, which was reduced by 20% by pressure-ejection (6 psi) of 22μM HF7. The effects of HF7 blockade were partially reversible (60% recovery) subsequent to washout of HF7. The voltage protocol is shown in the inset. Cells were held at Vh =-50 mV. L-type currents were evoked following a depolarizing voltage step to +10 mV.
# (§3) Two sets of experiments were conducted to determine the concentration dependence of both L- and T-type calcium currents to HF7. Each experiment was conducted in a manner similar to that in which the FIG. 6 experiment was performed. Inward L-type currents were elicited by depolarizing test pulses to +10 mV from a resting potential of -50 mV. Inward T-type currents were elicited by depolarizing test pulses to -25 mV from a resting potential of -90 mV. Six doses of HF7 were utilized for each set of experiments. Each dose was tried on three different cells. Responses to HF7 were calculated as percent inhibition of control current. Negative values represent current levels that were greater than control.
# [4] = system: glutamate-induced current; assay: Whole cell recording of glutamate-induced current under voltage clamp (HPLC fraction assay); format: cell-based; conditions: HF7 peak, voltage clamp mode
# Experimental: The components were eluted from the column stepwise with 0%, 2% and 4% acetonitrile in 0.1% TFA for the duration of 45 min., 15 min. and 40 min., respectively, at a flow rate of 2 ml/min. The elution was monitored by absorbance at 214 nm (FIG. 2) and 254 nm. According to the elution profile, fractions were collected manually and, after being dried down and dissolved in an appropriate buffer, were assayed in whole cell recording of glutamate-induced current under the voltage clamp mode (see "Functional Characterization" below for details). […] The other batch of HF7 was also purified with a slightly different program of acetonitrile stepwise elution (1% for 20 min., 2% for 20 min. and 4% for 40 min.), resulting in a shorter operation time without a significant change in the elution profile.
# [5] = system: T-type calcium currents in N1E-115 murine neuroblastoma cells; assay: T-type calcium currents in N1E-115 neuroblastoma cells, whole cell voltage clamp; format: cell-based; conditions: -90 mV to -25 mV; especially between 0 and 90μM; FIG. 7
# Experimental: as §2, §3
# [6] = system: ionic currents elicited by glutamate in fish retinal neurons; assay: Voltage clamp of glutamate-elicited currents in fish retinal neurons; format: cell-based; conditions: glutamate 50μM
# [7] = in vivo; cited from earlier work
# stroke = conditions: cited from earlier work
# kainate receptor [8] = conditions: printed for comparison; source not stated; read-out: IC50 (comparison, non-NMDA antagonists); cited from earlier work
# [9] = in vivo; cited from earlier work; remark: listed apart in the source
# [10] = system: delayed neuronal degeneration following transient forebrain ischemia; conditions: cited from earlier work
smiles,measurement,setting,value
CC(=O)OC1C(C)OC(O[C@@H]2[C@H](OS(=O)(=O)O)[C@@H](COS(=O)(=O)O)O[C@H]2n2cnc3c(=O)[nH]c(N)nc32)C(O)C1O (stereo partly shown) [HF7],IC50,kainate receptor [1],~20.7 µM
same,effect on kainate-elicited inward current,"kainate receptors; approximately 180μM HF7, pressure-ejection, Vh = -60 mV, kainate 25μM",virtually eliminated
same,inhibition of ionic currents elicited by kainate,kainate receptors; kainate 25μM,reversibly inhibited
same,IC50,"kainate receptors; kainate 25μM, mean of three cells per dose, FIG. 5, read-out: IC50, kainate current",~60 µM
same,reversibility of HF7 blockade of kainate current,kainate receptors; subsequent to washout,fully reversible
same,inhibition of the kainate response,"kainate receptors; ~200μM HF7, FIG. 4, kainate 25μM",near-complete inhibition
same,inhibition of ionic currents elicited by quisqualate,[2],reversibly inhibited
same,IC50,"[2]; mean of three cells per dose, FIG. 5, read-out: IC50, quisqualate current",~60 µM
same,reduction of L-type inward current,"[3]; 22μM HF7, Vh = -50 mV, test pulse to +10 mV, FIG. 6",20%
same,recovery of L-type current after washout,"[3]; subsequent to washout of 22μM HF7, partially reversible",60%
same,concentration dependence of L-type current inhibition,"[3]; throughout the concentration range used, -50 mV to +10 mV, FIG. 7",inhibited in a concentration dependent manner
same,activity on glutamate-induced current,[4],found to be active
same,effect on T-type current,[5],much more variable
same,inhibition of ionic currents elicited by glutamate,[6],reversibly inhibited
COCCOC(=O)C1=C(C)NC(C)=C(C(=O)OC(C)C)C1c1cccc([N+](=O)[O-])c1 (stereo not shown) [nimodipine],toxicity relative to NMDA antagonists,[7],less toxic than the NMDA antagonists
same,improvement in the outcome of stroke,stroke; clinical trials,Modest improvement
same,cardiovascular side effects,stroke; in vivo,significant cardiovascular side effects
N#Cc1cc2[nH]c(=O)c(=O)[nH]c2cc1[N+](=O)[O-] [CNQX],IC50,kainate receptor [8],~2000 nM
O=c1[nH]c2cc([N+](=O)[O-])c([N+](=O)[O-])cc2[nH]c1=O [DNQX],IC50,kainate receptor [8],~2000 nM
"NS(=O)(=O)c1cccc2c1c([N+](=O)[O-])cc1nc(O)c(O)nc12 [NBQX, 2,3-dihydroxy-6-nitro-7-sulfamoyl-benzo(F)quinoxaline]",crossing of the blood-brain barrier,[9],only in minute amounts
same,protection on delayed administration,[10]; administered several hours after the ischemic insult,protection was observed
same,prevention of delayed neuronal degeneration following transient forebrain ischemia,"[10]; gerbils and rats, relatively large systemic doses",dramatically effective
